Like-named read-outs stand apart in the source and are kept apart here.
Tests used:
[1] = tested on: Huntingtin (HTT) transcripts; test: Quantitative splicing assay (HTT), qPCR; assay type: cell-based; details: Homo sapiens, GM04724 (CAG 70/20) Huntington's disease patient lymphoblasts, 24 h
Method: GM04724 (CAG 70/20) Huntington's disease patient lymphoblasts (Coriell) are plated in 96-wel v-bottom plates at 50,000 cells/well. Immediately after plating, cells are dosed with compound for 24 h at concentrations ranging from 2.5 uM to 0.15 nM (0.1% DMSO). Treated cells are lysed and cDNA synthesized using the Fast Advanced Cells-to-Ct kit (Thermofisher A35378) according to the manufacturer's instructions. 2 uL of each cDNA are used in qPCR reactions to confirm the compound-induced inclusion of a cryptic exon within intron 49 of the Huntingtin (HTT) transcripts. The qPCR reactions are prepared in 384-well plates in 10 uL volume, using TaqMan™ Fast Advanced Master Mix [ThermoFisher; 4444965] with primers and probes shown in the table below. Reactions are run in a Quant Studio 6 qPCR instrument with default settings.

[2] = tested on: mHTT protein; test: mHTT protein assay (2B7-MW1, Mesoscale Discovery); assay type: cell-based, human; details: GM04724 (CAG 70/20) Huntington's disease patient lymphoblast cells, 48 hours, 2B7-MW1 MSD; read-out: HTT Potency - Protein EC50 mHTT (average)
Outline: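 GM04724 Huntington's patient lymphoblasts (CAG 70/20) were treated for 48 h at 10 μM to 0.6 nM. mHTT was quantified by 2B7-MW1 MSD immunoassay, whose signal depends on polyQ expansion and HTT fragment size. Viability was run on a parallel plate by CellTiter-Glo.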

[3] = tested on: MDR1-MDCK cell monolayers; test: MDCK-MDR1 permeability assay (BBB penetration potential); assay type: in vitro ADME; details: dog, MDCK-MDR1, 120 min, 5 μM, pH 7.4
Method: (§1) Each determination is performed in duplicate. […] Analytical conditions are outlined below.

[4] = tested on: MDR1; test: as above; assay type: in vitro ADME; details: dog; for efflux ratio at 120 min, 5 μM: MDCK-MDR1, pH 7.4, MDCK-MDR1: Efflux; for Papp A→B at 120 min, 5 μM: MDCK-MDR1, pH 7.4, MDCK-MDR1: Papp A-B; for Papp B→A at 120 min, 5 μM: MDCK-MDR1, pH 7.4, MDCK-MDR1: Papp B-A
Method: as §1

[5] = qPCR HTTex49_50, read-out: HTT Potency - Splicing: E49-50 EC50 (average)
[6] = qPCR cryptic exon 49b inclusion, read-out: HTT Potency - Splicing: E49b EC50 (average)

| SMILES | EC50 [1, 5] | EC50 [1, 6] | EC50 [2] | MDCK-MDR1: % Recov A-B [3] | MDCK-MDR1: % Recov B-A [3] | efflux ratio at 120 min, 5 μM [4] | Papp A→B at 120 min, 5 μM [4] | Papp B→A at 120 min, 5 μM [4] |
| --- | --- | --- | --- | --- | --- | --- | --- | --- |
| O=c1cc(-c2ccc(-c3ccc(O[C@@H]4C[C@H]5CCC[C@H](N5)[C@@H]4F)nn3)c(O)c2)cc[nH]1 (single isomer, unassigned) [53-ENT1] | 101 to 500 nM | 101 to 500 nM | 101 to 500 nM | 91% | 90% | 103 | 0.22 ×10⁻⁶ cm/s | 22.2 ×10⁻⁶ cm/s |
| COc1cc(-c2ccc(-c3ccc(O[C@H]4C[C@]5(C)CC[C@@](C)(N5)[C@H]4F)nn3)c(O)c2)cnn1 (single isomer, unassigned) [157-ENT2] | 16 to 50 nM | 16 to 50 nM | 16 to 50 nM | 82% | 81% | 5 | 6.79 ×10⁻⁶ cm/s | 36.1 ×10⁻⁶ cm/s |
| Oc1cc(-c2nnco2)ccc1-c1ccc(O[C@H]2C[C@@H]3CC[C@@H](N3)[C@H]2F)nn1 (single isomer, unassigned) [140-ENT1] | 101 to 500 nM | 101 to 500 nM | 101 to 500 nM | 92% | 95% | 2 | 18.1 ×10⁻⁶ cm/s | 43.3 ×10⁻⁶ cm/s |
| COc1cc(-c2ccc(-c3ccc(O[C@@H]4C[C@H]5CCC[C@H](N5)[C@@H]4F)nn3)c(O)c2)cnn1 (single isomer, unassigned) [76-ENT1] | 0.01 to 15 nM | 0.01 to 15 nM | 16 to 50 nM | 64% | 70% | 8 | 3.83 ×10⁻⁶ cm/s | 32.3 ×10⁻⁶ cm/s |
| Oc1cc(-c2cn[nH]c2)ccc1-c1ccc(O[C@@H]2C[C@H]3CCC[C@H](N3)[C@@H]2F)nn1 (single isomer, unassigned) [40-ENT2] | 0.01 to 15 nM | 0.01 to 15 nM | 0.01 to 15 nM | 80% | 83% | 17 | 2.47 ×10⁻⁶ cm/s | 41.6 ×10⁻⁶ cm/s |
| Oc1cc(-n2cccn2)ccc1-c1ccc(O[C@H]2C[C@@H]3CC[C@@H](N3)[C@H]2F)nn1 (single isomer, unassigned) [35-ENT2] | 101 to 500 nM | 101 to 500 nM | 51 to 100 nM | 62% | 68% | 4 | 6.25 ×10⁻⁶ cm/s | 24 ×10⁻⁶ cm/s |
| Oc1cc(-n2ccnn2)ccc1-c1ccc(O[C@H]2C[C@@H]3CCC[C@@H](N3)[C@H]2F)nn1 (single isomer, unassigned) [69-ENT2] |  |  | 101 to 500 nM | 86% | 93% | 5 | 10.7 ×10⁻⁶ cm/s | 55.9 ×10⁻⁶ cm/s |
| Cn1ccc(=O)c2cc(-c3ccc(O[C@H]4C[C@]5(C)CCC[C@@](C)(N5)[C@H]4F)nn3)c(O)cc21 (single isomer, unassigned) [131-ENT1] |  |  | 501 to 10000 nM | 95% | 99% | 70 | 0.71 ×10⁻⁶ cm/s | 49.5 ×10⁻⁶ cm/s |
| Cc1ccc(-c2ccc(-c3ccc(O[C@@H]4C[C@H]5CCC[C@H](N5)[C@@H]4F)nn3)c(O)c2)s1 (single isomer, unassigned) [100-ENT1] |  |  | 101 to 500 nM | 16% | 49% | 1 | 0.99 ×10⁻⁶ cm/s | 0.68 ×10⁻⁶ cm/s |
| Cn1cc(-c2cc(O)c(-c3ccc(O[C@@H]4CC5CC[C@H](N5)[C@@H]4F)nn3)cn2)cn1 (single isomer, unassigned) [63-ENT1] |  |  | 501 to 10000 nM | 103% | 110% | 37 | 0.29 ×10⁻⁶ cm/s | 10.9 ×10⁻⁶ cm/s |
| Cc1nnc(-c2ccc(-c3ccc(O[C@@H]4C[C@H]5CCC[C@H](N5)[C@@H]4F)nn3)c(O)c2)s1 (single isomer, unassigned) [95-ENT1] |  |  | 101 to 500 nM | 72% | 78% | 10 | 4.88 ×10⁻⁶ cm/s | 48.8 ×10⁻⁶ cm/s |
| Oc1cc(-n2ccnn2)ccc1-c1ccc(O[C@@H]2C[C@H]3CCC[C@H](N3)[C@@H]2F)nn1 (single isomer, unassigned) [69-ENT1] |  |  | 101 to 500 nM | 89% | 93% | 5 | 9.2 ×10⁻⁶ cm/s | 47.6 ×10⁻⁶ cm/s |
| Cc1cc(-c2ccc(-c3ccc(O[C@H]4C[C@@H]5CCC[C@@H](N5)[C@H]4F)nn3)c(O)c2)ccn1 (single isomer, unassigned) [88-ENT2] |  |  | 16 to 50 nM | 51% | 71% | 4 | 5.13 ×10⁻⁶ cm/s | 21.5 ×10⁻⁶ cm/s |
| Cc1nc(-c2ccc(-c3ccc(O[C@@H]4C[C@H]5CCC[C@H](N5)[C@@H]4F)nn3)c(O)c2)co1 (single isomer, unassigned) [92-ENT1] |  |  | 101 to 500 nM | 65% | 74% | 5 | 5.99 ×10⁻⁶ cm/s | 30.9 ×10⁻⁶ cm/s |
| O=c1cc(-c2cc(O)c(-c3ccc(O[C@@H]4C[C@H]5CCC[C@H](N5)[C@@H]4F)nn3)cc2F)cc[nH]1 (single isomer, unassigned) [57-ENT1] |  |  | 101 to 500 nM | 94% | 101% | 73 | 0.26 ×10⁻⁶ cm/s | 18.9 ×10⁻⁶ cm/s |
| Oc1cc(-c2nnco2)c(F)cc1-c1ccc(O[C@H]2C[C@@H]3CCC[C@@H](N3)[C@H]2F)nn1 (single isomer, unassigned) [143-ENT1] |  |  | 51 to 100 nM | 81% | 93% | 8 | 6.56 ×10⁻⁶ cm/s | 55.7 ×10⁻⁶ cm/s |
| Cc1cc(-c2ccc(-c3ccc(O[C@H]4C[C@@H]5CCC[C@@H](N5)[C@H]4F)nn3)c(O)c2)cnn1 (single isomer, unassigned) [90-ENT2] |  |  | 101 to 500 nM | 101% | 97% | 34 | 1.92 ×10⁻⁶ cm/s | 64.6 ×10⁻⁶ cm/s |
| Cn1ccc(=O)c2cc(O)c(-c3ccc(O[C@H]4C[C@]5(C)CCC[C@@](C)(N5)[C@H]4F)nn3)cc21 (stereo in doubt) [132-ENT2, 7-(6-(((1R,2R,3S,5S)-2-fluoro-1,5-dimethyl-9-azabicyclo[3.3.1]nonan-3-yl)oxy)pyridazin-3-yl)-6-hydroxy-1-methylquinolin-4(1H)-one] |  |  | 101 to 500 nM | 93% | 95% | 126 | 0.11 ×10⁻⁶ cm/s | 13.4 ×10⁻⁶ cm/s |
| Oc1cc(-c2nnco2)c(F)cc1-c1ccc(O[C@@H]2C[C@H]3CCC[C@H](N3)[C@@H]2F)nn1 (single isomer, unassigned) [143-ENT2] |  |  | 51 to 100 nM | 81% | 87% | 8 | 6.91 ×10⁻⁶ cm/s | 54.8 ×10⁻⁶ cm/s |
| Cc1nocc1-c1ccc(-c2ccc(O[C@H]3C[C@@H]4CCC[C@@H](N4)[C@H]3F)nn2)c(O)c1 (single isomer, unassigned) [72-ENT2] |  |  | 101 to 500 nM | 64% | 74% | 7 | 4.67 ×10⁻⁶ cm/s | 34.9 ×10⁻⁶ cm/s |
| C[C@]12CCC[C@](C)(N1)[C@H](F)[C@H](Oc1ccc(-c3ccc(C#N)cc3O)nn1)C2 (single isomer, unassigned) [145-ENT1] |  |  | 501 to 10000 nM | 82% | 87% | 4 | 9.39 ×10⁻⁶ cm/s | 42 ×10⁻⁶ cm/s |
| N#Cc1ccc(-c2ccc(O[C@@H]3C[C@H]4CCC[C@H](N4)[C@@H]3F)nn2)c(O)c1 (single isomer, unassigned) [110-ENT1] |  |  | 501 to 10000 nM | 101% | 100% | 13 | 5.37 ×10⁻⁶ cm/s | 68.2 ×10⁻⁶ cm/s |
